Results from US7323620B2, “Activation of equine oocytes” (Idaho Research Foundation, Inc., priority 2002, dated 2008).

Experiments:
horse oocytes = experiment: Data in horses: protocol of Group 4 of Example 9 repeated with horse oocytes; type: in vivo
Experimental: The protocol of Group 4 of Example 9 was repeated with […] horse oocytes. Of these, pregnancy was detected at two weeks in 6 mares, […]. Of these 6, 3 pregnancies were detected at 30 days and 1 was detected at 45 days.
(§1) Holding/Activation/Culture Medium for Group 4 in Example 9 and in horses in Example 10 • HECM (Ball et al., Amer. J. Vet. Res., 54(7):1139-44 (1993) • Ham's F-12+Dulbecco's […] (DMEM)—(50:50, v:v) • 0.71 mM CaCl2 (1×) • 29 mM NaHCO3 • 5 micrograms/ml insulin • 5 micrograms/ml transferrin • 5 ng/ml Na-selenite • 10 ng/ml EGF • 50 IU penicillin • 50 micrograms streptomycin

equine oocytes = experiment: Nuclear transfer with activation of oocytes in calcium chloride/ionomycin activation medium, embryo transfer and pregnancy detection by transrectal ultrasonography (cloned mule embryos); type: in vivo, mule (donor cells); recipient mare Equus caballus
Experimental: A primary culture of fibroblast cells was established from a 45-day mule fetus recovered from a domestic horse mare using transcervical uterine lavage. Culture medium was Glasgow MEM BHK-21 supplemented with 10% FBS, 100 units/ml penicillin, and 100 μg/ml streptomycin. Incubation was performed at 38.5° C. in a humidified atmosphere of 5% CO2 in air. Prior to the nuclear transfer procedure, the fibroblast cells were serum “starved” for 5 to 10 days by placing them into medium with 0.5% FBS.
Mares that were used as oocyte donors and as cloned-embryo recipients were of mixed breeding, 3 to 12 years old, and weighed 300 to 500 kg. The reproductive tracts of the mares were monitored by transrectal palpation and ultrasonography to assess follicular activity, ovulation, and the presence and degree of endometrial edema.
Oocytes were collected by one of three methods.
1. Recent (≦12 hours) post-ovulatory oocytes (n=12) were collected by surgically excising the oviduct ipsilateral to ovulation and then flushing the oviduct in a retrograde manner with modified DPBS.
2. Pre-ovulatory oocytes (n=3) were collected by surgically excising ovaries containing a pre-ovulatory follicle (≧35 mm) approximately 30 hours after administration of 2500 IU hCG and then manually aspirating the follicle.
3. Pre-ovulatory oocytes (n=180) were collected using transvaginal aspiration (TVA) of pre-ovulatory follicles approximately 24 hours after administration of 2500 IU hCG.
Oocytes collected post-ovulation were incubated for up to 6 hours in maturation medium (M-199) containing 10% FBS, 0.05 units/ml pFSH, 0.05 units/ml pLH, 10 units/ml penicillin and 10 μg/ml streptomycin. Oocytes collected pre-ovulation were incubated in maturation medium for approximately 12 hours.
Cumulus-free metaphase II oocytes and starved donor cells were placed in a manipulation drop of TL HEPES containing 7.5 μg of cytochalasin B. The first polar body and metaphase plate of the oocytes were drawn into a 25-28 ID enucleation pipette. The same pipette was used to aspirate a disaggregated donor cell nucleus and place it in the perivitelline space of an oocyte to obtain an NT couple. Fusion of NT couples was induced by a single 15 μsec, 2.2 kv/cm DC pulse in a 3.5 mm fusion chamber. Fusion medium was […] D-mannitol containing 0.5 mM HEPES and 0.05% fatty acid-free BSA. Fused NT couples were activated by placing them in an activation medium containing calcium chloride and ionomycin for 8 minutes. Three different concentrations of calcium chloride were used in the activation medium: 2 mM (n=133 oocytes), 6 mM (n=40 oocytes), and 20 mM (n=22 oocytes).
Immediately following nuclear transfer and activation, the oocytes, hereafter referred to as embryos, were surgically transferred to the oviduct of a recipient mare (Equus caballus) that had ovulated within 24 hours prior to the transfer. One to nine embryos were transferred to each mare. Pregnancy examinations on the recipient mare were performed using transrectal ultrasonography beginning on Day 12 post-transfer.

Oocytes from mules = experiment: Additional data in mules: calcium concentration in activation medium and peripheral media, pregnancies after nuclear transfer; type: in vivo, mule
Text: The procedures of the above examples were repeated in order to compare results obtained with different concentrations of calcium in the activation medium and in peripheral media, that is media other than the activation medium. Oocytes from mules were placed into one of four groups as follows: In Groups 1 to 3, media was as described above in Examples 1 to 5, except for calcium concentration, which is as described below. In Group 4, media was HECM media.
Tissue Culture Medium (TCM)—199 with Earl's salts • 1.4 mM CaCl2 (1×) • 10% Fetal Bovine Serum (FBS) • 0.05 units FSH • 0.05 units LH • 100 units penicillin • 100 micrograms streptomycin Manipulation Medium:
PB1 (Whittingham, D G, J. Reprod. Fert., 37(1):159-162 (1974) • Dulbecco's phosphate buffered saline • 1.4 mM CaCl2 (1×) • 0.5 mM MgCl2 • 0.33 mM Na-pyruvate • 5.56 mM Glucose • 3 mg/ml Bovine Serum Albumin (BSA)—fraction 5 • 100 units penicillin • 10 micrograms streptomycin Transfer Medium
PB1 (as in Manipulation Medium) except 0.7 mM CaCl2 (1×)
as §1

[1] = Group 4 protocol (6x Ca activation, 3x peripheral media), 59 horse oocytes
[2] = Group 4 protocol, of 6 two-week pregnancies
[3] = 2 mM calcium in activation medium
[4] = 6 mM calcium in activation medium
[5] = 20 mM calcium in activation medium
[6] = Group 4 (6x Ca activation, 3x peripheral media)

[Ca+2].[Cl-].[Cl-] [calcium chloride]
Pregnancy detected at two weeks (horse oocytes; [1]): 4.4% | Pregnancy detected at two weeks, number of mares (horse oocytes; [1]): 6 | Pregnancies detected at 30 days (horse oocytes; [2]): 3 | Pregnancies detected at 45 days (horse oocytes; [2]): 1 | Pregnancy Rate (equine oocytes; [3]): (1.5%) | Pregnancy Rate (pregnancies/oocytes) (equine oocytes; [3]): 2/133 | Pregnancy Rate (equine oocytes; [4]): (7.5%) | Pregnancy Rate (pregnancies/oocytes) (equine oocytes; [4]): 3/40 | Ultrasonography of cloned mule conceptus (equine oocytes; 6 mM calcium in activation medium, Day 32 of gestation): an embryonic heart was evident | Pregnancy Rate (equine oocytes; [5]): (9.1%) | Pregnancy Rate (pregnancies/oocytes) (equine oocytes; [5]): 2/22 | Pregnancies, higher versus lower calcium (equine oocytes; 6 and 20 mM combined compared to 2 mM in activation medium, P<0.05): more pregnancies | Two-week pregnancies detectable at 30 days (Oocytes from mules; Group 1 (1x Ca all media), of 2 two-week pregnancies): neither | PREGNANCIES (2 weeks) (Oocytes from mules; Group 1: 1x Ca (about 2 mM) all media): (1.7%) | PREGNANCIES (2 weeks), number (Oocytes from mules; Group 1: 1x Ca (about 2 mM) all media, 115 oocytes): 2 | Two-week pregnancies detectable at 30 days (Oocytes from mules; Group 2 (3x Ca activation medium), of 3 two-week pregnancies): 2 | PREGNANCIES (2 weeks) (Oocytes from mules; Group 2: 3x Ca (about 6 mM) in activation media, 1x Ca all other media): (7.5%) | PREGNANCIES (2 weeks), number (Oocytes from mules; Group 2: 3x Ca (about 6 mM) in activation media, 1x Ca all other media, 40 oocytes): 3 | PREGNANCIES (2 weeks) (Oocytes from mules; Group 3: 10x Ca (about 20 mM) in activation media, 1x Ca all other media): (9.09%) | PREGNANCIES (2 weeks), number (Oocytes from mules; Group 3: 10x Ca (about 20 mM) in activation media, 1x Ca all other media, 22 oocytes): 2 | Pregnancies detectable at 45 days (Oocytes from mules; [6]): Five | Pregnancies detectable at 120 days (Oocytes from mules; [6]): 3 | Two-week pregnancies detectable at 30 days (Oocytes from mules; Group 4 (6x Ca activation, 3x peripheral media), of 12 two-week pregnancies): 9 | PREGNANCIES (2 weeks) (Oocytes from mules; Group 4: 6x Ca (about 12 mM) in activation media, 3x Ca all other media, HECM media): (14.4%) | PREGNANCIES (2 weeks), number (Oocytes from mules; Group 4: 6x Ca (about 12 mM) in activation media, 3x Ca all other media, HECM media, 132 oocytes): 19
